Measured values from patent US5455267A, “Chromone derivative, and aldose reductase inhibitor comprising said compound as active component” (Tsumura & Co., priority 1990, dated 1995).

Target: T1, aldose reductase (Rattus norvegicus, UniProt P07943)
T1 construct: The crystalline lenses were homogenized in 135 mM sodium-potassium-phosphate buffer (pH 7.0) and centrifuged; from tissue; host or cells: lens of 6 week-old Wistar rats (30,000 rpm supernatant of homogenate)
Test: Determination of Aldose Reductase Activity (In Vitro)
Assay type: biochemical, rat (Wistar)
Details: Table 3; for inhibition at 10 µM: at the concentration of 10 μM, read-out: Inhibition rate %; for IC50: rat lens aldose reductase, 20 mM glucose, 30 min, 30° C, pH 7.0, read-out: 50% Inhibition Conc. [IC50 (M)]
Protocol: 6 week-old Wistar rats were sacrificed under ether anesthesia, and immediately lenses were removed and stored at -20° C. The crystalline lenses were homogenized in 135 mM sodium-potassium-phosphate buffer (pH 7.0) and centrifuged for 30 min. at 30,000 rpm. The supernatant was used as an aldose-reductase solution. The above procedure was carried out at 4° C. The enzyme solution was stored at -20° C.
The measurement of aldose reductase activity was conducted according to the method as described by Duffane et al. (Biochemical Medicine, 32:99-105 (1984)).
That is, 100 gl of the above enzyme solution and 100 gl of a solution prepared by dissolving a compound obtained in the following example to a final concentration of from 1.0×10^-5 to 4.0×10^-7 M in dimethylsulfoxide (DMSO) were added to 800 gl of 135 mM sodium-potassium-phosphate buffer (pH 7.0) containing 100 mM lithium sulfate, 0.03 mM NADPH (reduced form of nicotinamide adeninc dinucleotide phosphate) and 20 mM glucose as a substrate. The sample was allowed to react for 30 min. at 30° C. The reaction was stopped by addition of 0.3 ml of 0.5N hydrochloric acid. The NADP (oxided form of nicotinamide adenine dinucleotide) formed during the above reaction was converted into a fluorescent substance by addition of 1 ml of 6N sodium hydroxide containing 10 mM imidazole. 30 min. thereafter, the sample was measured for fluorescence intensity at the fluorescence wavelength of 460 nm (excitation wavelength: 360 nm) using a fluorescence photometer F-4000 (manufactured by Hitachi, Ltd.) at room temperature. A sample containing DMSO in place of the present compound was used as a control, and its fluorescence intensity was determined in the same manner as above.
Aldose reductase is an enzyme to convert DL-glyceraldehyde or glucose into polyol in the presence of NADPH as a coenzyme. As this reaction proceeds, NADPH is converted into NADP, so that the smaller amount of NADP formed indicates higher inhibition of aldose reductase. […]

SMILES | inhibition at 10 µM [%] | IC50 [M]
CCCOc1cc2oc(Sc3ccc(O)cc3)cc(=O)c2c(OCCC)c1OC [Example 12, 5,7-dipropoxy-2-(4-hydroxyphenylthio)-6-methoxychromone] | 93 | 1.5e-07
COc1cc(O)c2c(=O)cc(Nc3ccc(O)cc3)oc2c1 [Compound 2 obtained in Example 77, 5-hydroxy-2-(4-hydroxyanilino)-7-methoxychromone] | 40 | –
COc1c(OC(C)=O)cc2oc(Sc3ccc(O)cc3)cc(=O)c2c1OC(C)=O [Compound 1 obtained in Example 28, 5,7-diacetoxy-2-(4-hydroxyphenylthio)-6-methoxychromone] | 95.4 | 1.7e-07
CCC(C)Oc1cc2oc(Sc3ccc(O)cc3)cc(=O)c2c(OC(C)CC)c1OC (stereo not shown) [Example 15, 5,7-di-s-butoxy-2-(4-hydroxyphenylthio)-6-methoxychromone] | 98.4 | 3.8e-08
COc1cc(OC)c2c(=O)cc(Sc3ccccc3)oc2c1 [Example 41, 5,7-dimethoxy-2-phenylthiochromone] | 52.4 | –
COc1cc(OC)c2c(=O)cc(Sc3ccccc3OC)oc2c1 [Example 46, 5,7-dimethoxy-2-(2-methoxyphenylthio)chromone] | 28.4 | –
COc1c(OC(C)C)cc2oc([S+]([O-])c3ccc(O)cc3)cc(=O)c2c1OC (stereo not shown) [Compound 1 obtained in Example 34, 5,6-dimethoxy-2-(4-hydroxyphenylsulfinyl)-7-isopropoxychromone] | 98 | 4.6e-07
COc1cc2oc(Sc3ccc(O)cc3)cc(=O)c2c(O)c1OC [Example 2, 5-hydroxy-2-(4-hydroxyphenylthio)-6,7-dimethoxychromone] | 87.1 | 1.1e-07
COc1cccc(Sc2cc(=O)c3c(OC)cc(OC)cc3o2)c1 [Example 47, 5,7-dimethoxy-2-(3-methoxyphenylthio)chromone] | 36.5 | –
COc1c(OC(C)C)cc2oc(Sc3ccc(O)cc3)cc(=O)c2c1O [Example 26, 5-hydroxy-2-(4-hydroxyphenylthio)-7-isopropoxy-6-methoxychromone] | 98.1 | 6.5e-08
COc1c(OC(C)C)cc2oc(Sc3ccc(O)c(Cl)c3)cc(=O)c2c1OC(C)C [Example 19, 2-(3-chloro-4-hydroxyphenylthio)-5,7-diisopropoxy-6-methoxychromone] | 69.8 | 4e-06
COc1c(OC(C)=O)cc2oc(Sc3ccc(O)cc3)cc(=O)c2c1O [Compound 2 obtained in Example 28, 7-acetoxy-5-hydroxy-2-(4-hydroxyphenylthio)-6-methoxychromone] | 95.4 | 3e-07
CCCCOc1cc2oc(Sc3ccc(O)cc3)cc(=O)c2c(OCCCC)c1OC [Example 14, 5,7-dibutoxy-2-(4-hydroxyphenylthio)-6-methoxychromone] | 86.8 | 1.9e-07
CCOc1c(OC)c(OCC=C(C)C)cc2oc(Sc3ccc(O)cc3)cc(=O)c12 [Example 31, 5-ethoxy-2-(4-hydroxyphenylthio)-6-methoxy-7-prenyloxychromone] | 100 | 2.3e-07
COc1c(OC(C)C)cc2oc(Sc3ccc(O)cc3)cc(=O)c2c1OC(C)C [Example 13, 5,7-diisopropoxy-2-(4-hydroxyphenylthio)-6-methoxychromone] | 93.7 | 1.8e-08
COc1cc(OC)c2c(=O)cc(Sc3ccccc3Cl)oc2c1 [Example 42, 5,7-dimethoxy-2-(2-chlorophenylthio)chromone] | 47.7 | –
CCOc1cc2oc(Sc3ccc(O)cc3)cc(=O)c2c(OCC)c1OC [Example 11, 5,7-diethoxy-2-(4-hydroxyphenylthio)-6-methoxychromone] | 98.5 | 4e-08
COc1cc(OC)c2c(=O)cc(Sc3cccc(Cl)c3)oc2c1 [Example 43, 5,7-dimethoxy-2-(3-chlorophenylthio)chromone] | 44 | –
COc1c(OCC(C)C)cc2oc(Sc3ccc(O)cc3)cc(=O)c2c1OC(C)C [Example 17, 2-(4-hydroxyphenylthio)-7-isobutoxy-5-isopropoxy-6-methoxychromone] | 95.1 | 1.3e-07
COc1c(OC(C)C)cc2oc(S(=O)(=O)c3ccc(O)cc3)cc(=O)c2c1OC [Compound 2 obtained in Example 34, 5,6-dimethoxy-2-(4-hydroxyphenylsulfonyl)-7-isopropoxychromone] | 96.6 | 1e-06

Continued, values first:

inhibition at 10 µM [%] | IC50 [M] | SMILES
31.5 | – | COc1cc(OC)c2c(=O)cc(Sc3ccc(CO)cc3)oc2c1 [Example 66, 5,7-dimethoxy-2-(4-hydroxymethyl-phenylthio)chromone]
52.9 | – | COc1cc(OC)c2c(=O)cc(Sc3ccc(C(=O)O)cc3)oc2c1 [Example 64, 4-(5,7-dimethoxychromonyl-2-thio)benzoic acid]
22.8 | – | COc1cc(OC)c2c(=O)cc(Sc3cccc(C)c3)oc2c1 [Example 53, 5,7-dimethoxy-2-(3-methylphenylthio)chromone]
31.7 | – | COc1cc(OC)c2c(=O)cc(Sc3ccccc3C)oc2c1 [Example 52, 5,7-dimethoxy-2-(2-methylphenylthio)chromone]
43.5 | – | O=c1cc(SCc2ccc(O)cc2)oc2cc(O)cc(O)c12 [Example 75, 5,7-dihydroxy-2-(4-hydroxybenzylthio)chromone]
16.4 | – | COc1ccc(CSc2cc(=O)c3c(OC)cc(OC)cc3o2)cc1 [Example 73, 5,7-dimethoxy-2-(4-methoxybenzylthio)chromone]
37.4 | – | COc1cc(OC)c2c(=O)cc(Sc3ccccn3)oc2c1 [Example 58, 5,7-dimethoxy-2-(2-pyridylthio)chromone]
97.7 | – | CC(C)Oc1cc(OC(C)C)c2c(=O)cc(Sc3ccc(O)cc3)oc2c1 [Example 69, 5,7-diisopropoxy-2-(4-hydroxyphenylthio)chromone]
23.1 | – | COC(=O)c1ccc(Sc2cc(=O)c3c(OC)cc(OC)cc3o2)cc1 [Example 65, methyl 4-(5,7-dimethoxychromonyl-2-thio)benzoate]
88.7 | 1e-07 | COc1cc(OC)c2c(=O)cc(Sc3ccc(O)cc3)oc2c1 [Example 71, 2-(4-hydroxyphenylthio)-5,7-dimethoxychromone]
84 | 1e-07 | COc1cc(O)c2c(=O)cc(Sc3ccc(O)cc3)oc2c1 [Example 72, 5-hydroxy-2-(4-hydroxyphenylthio)-7-methoxychromone]
52.1 | – | COc1cc(O)c2c(=O)cc(SCc3ccc(O)cc3)oc2c1 [Example 74, 5-hydroxy-2-(4-hydroxybenzylthio)-7-methoxychromone]
50.5 | – | COc1cc(OC)c2c(=O)cc(Sc3cccc(O)c3)oc2c1 [Example 57, 2-(3-hydroxyphenylthio)-5,7-dimethoxychromone]
85.5 | 1e-06 | COc1cc(OC)c2c(=O)cc(Oc3ccc(O)cc3)oc2c1 [Example 70, 2-(4-hydroxyphenoxy)-5,7-dimethoxychromone]
35.9 | – | COc1cc(OC)c2c(=O)cc(Sc3ccccc3O)oc2c1 [Example 56, 2-(2-hydroxyphenylthio)-5,7-dimethoxychromone]
48.2 | – | COc1cc(OC)c2c(=O)cc(Sc3ccccc3N)oc2c1 [Example 49, 5,7-dimethoxy-2-(2-aminophenylthio)chromone]
37.1 | – | COc1cc(OC)c2c(=O)cc(Sc3ccncc3)oc2c1 [Example 59, 5,7-dimethoxy-2-(4-pyridylthio)chromone]
31.1 | – | COc1cc(OC)c2c(=O)cc(Sc3nnc(N)s3)oc2c1 [Example 63, 2-(2-amino-5-thiadiazolylthio)-5,7-dimethoxychromone]
